Laboratory results from US20250042881A1, “CCR6 RECEPTOR MODULATORS” (Idorsia Pharmaceuticals Ltd, priority 2021, published 2025).

What follows are molecules tested against T1, human CCR6 (Homo sapiens, UniProt P51684) (assay: FLIPR assay: inhibition of CCL20-induced calcium signal in HEK-293 cells expressing human CCR6). Conditions: engineered HEK-293 cells expressing human CCR6; agonist CCL20 10 nM; 30 min preincubation; Fluo-8-AM; mean values if determined several times.
T1 construct: expressed in transfected cells; host or cells: HEK-293
T1 sequence (P51684 1-374): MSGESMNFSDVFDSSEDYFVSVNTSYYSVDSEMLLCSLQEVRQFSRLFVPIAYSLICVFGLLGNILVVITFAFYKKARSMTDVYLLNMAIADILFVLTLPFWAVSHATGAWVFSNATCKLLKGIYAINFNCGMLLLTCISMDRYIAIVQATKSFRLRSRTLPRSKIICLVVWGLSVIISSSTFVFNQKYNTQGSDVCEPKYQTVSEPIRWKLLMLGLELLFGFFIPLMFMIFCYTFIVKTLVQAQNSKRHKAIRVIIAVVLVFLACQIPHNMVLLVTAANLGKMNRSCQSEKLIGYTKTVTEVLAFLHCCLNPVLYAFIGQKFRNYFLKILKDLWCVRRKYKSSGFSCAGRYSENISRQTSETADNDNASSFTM
Type: cell-based

Row | Compound | IC50 [nM]
1 | CC(C)c1ccc([C@](O)(c2cncc(-c3nc(C4CCOCC4)n(C4CC4)n3)c2)C2(C)CN(CC(F)F)C2)cc1 [Example 35, (R)-{5-[1-Cyclopropyl-5-(tetrahydro-pyran-4-yl)-1H-[1,2,4]triazol-3-yl]-pyridin-3-yl}-[1-(2,2-difluoro-ethyl)-3-methyl-azetidin-3-yl]-(4-isopropyl-phenyl)-methanol] | 72.6
2 | CC(C)c1ccc([C@](O)(c2cncc(-c3nc(C4CCOCC4)n(CC(C)(F)F)n3)c2)C2(C)CN(C)C2)cc1 [Example 22, (R)-{5-[1-(2,2-Difluoro-propyl)-5-(tetrahydro-pyran-4-yl)-1H-[1,2,4]triazol-3-yl]-pyridin-3-yl}-(1,3-dimethyl-azetidin-3-yl)-(4-isopropyl-phenyl)-methanol] | 81.6
3 | CC(=O)NCCn1nc(-c2cncc([C@@](O)(c3ccc(C(C)C)cc3)C3(C)CN(C)C3)c2)nc1C1CCOCC1 [Example 50, N-{2-[3-{5-[(R)-(1,3-Dimethyl-azetidin-3-yl)-hydroxy-(4-isopropyl-phenyl)-methyl]-pyridin-3-yl}-5-(tetrahydro-pyran-4-yl)-[1,2,4]triazol-1-yl]-ethyl}-acetamide] | 481
4 | CC(C)c1ccc([C@](O)(c2cncc(-c3nc(C4CCOCC4)n(C)n3)c2)C2(C)CN(C)C2)cc1 [Example 16, (R)-(1,3-Dimethyl-azetidin-3-yl)-(4-isopropyl-phenyl)-{5-[1-methyl-5-(tetrahydro-pyran-4-yl)-1H-[1,2,4]triazol-3-yl]-pyridin-3-yl}-methanol] | 221
5 | CC(C)c1ccc([C@](O)(c2cnc(F)c(-c3nc([C@H]4CC[C@H](O)CC4)n(C4CC4)n3)c2)C2(C)CN(C)C2)cc1 [Example 39, 4-(2-Cyclopropyl-5-{5-[(R)-(1,3-dimethyl-azetidin-3-yl)-hydroxy-(4-isopropyl-phenyl)-methyl]-2-fluoro-pyridin-3-yl}-2H-[1,2,4]triazol-3-yl)-trans-cyclohexanol] | 76.6
6 | CN1CC(C)([C@](O)(c2ccc(C(C)(C)C)cc2)c2cncc(-c3nc(C4CCOCC4)n(C4CC4)n3)c2)C1 [Example 2, (R)-(4-tert-Butyl-phenyl)-{5-[1-cyclopropyl-5-(tetrahydro-pyran-4-yl)-1H-[1,2,4]triazol-3-yl]-pyridin-3-yl}-(1,3-dimethyl-azetidin-3-yl)-methanol] | 81.1
7 | CC(C)c1ccc([C@](O)(c2cncc(-c3nc(C45CC(CO)(C4)C5)n(C(C)C)n3)c2)C2(C)CN(C)C2)cc1 [Example 29, (R)-(1,3-Dimethyl-azetidin-3-yl)-{5-[5-(3-hydroxymethyl-bicyclo[1.1.1]pent-1-yl)-1-isopropyl-1H-[1,2,4]triazol-3-yl]-pyridin-3-yl}-(4-isopropyl-phenyl)-methanol] | 78.7
8 | CC(C)c1ccc([C@](O)(c2cncc(-c3nc(C45CCC(C(=O)O)(CC4)CC5)n(C4CC4)n3)c2)C2(C)CN(C)C2)cc1 [Example 13, 4-(2-Cyclopropyl-5-{5-[(R)-(1,3-dimethyl-azetidin-3-yl)-hydroxy-(4-isopropyl-phenyl)-methyl]-pyridin-3-yl}-2H-[1,2,4]triazol-3-yl)-bicyclo[2.2.2]octane-1-carboxylic acid] | 149
9 | CC(C)c1ccc([C@](O)(c2cncc(-c3nc(C(C)(C)O)n(C(C)C)n3)c2)C2(C)CN(C)C2)cc1 [Example 27, 2-(5-{5-[(R)-(1,3-Dimethyl-azetidin-3-yl)-hydroxy-(4-isopropyl-phenyl)-methyl]-pyridin-3-yl}-2-isopropyl-2H-[1,2,4]triazol-3-yl)-propan-2-ol] | 59.5
10 | CC(C)c1ccc([C@](O)(c2cncc(-c3nc(C4(O)CCOCC4)n(C(C)C)n3)c2)C2(C)CN(C)C2)cc1 [Example 31, 4-(5-{5-[(R)-(1,3-Dimethyl-azetidin-3-yl)-hydroxy-(4-isopropyl-phenyl)-methyl]-pyridin-3-yl}-2-isopropyl-2H-[1,2,4]triazol-3-yl)-tetrahydro-pyran-4-ol] | 86.3
